Measured values published in ChEMBL document CHEMBL6103615, “Thymidylate Kinase-Targeted Antimicrobial Peptides via Phage Display: A Novel Strategy against Gram-Negative Bacteria” (J Med Chem, 2025).
In brackets after ≈: the same amount, converted by molar mass. Activity calls are given as the source filed them. The calls are words filed in the database; no cut-off is given here.

Legend:
Escherichia coli [1] = assay: Antibacterial activity against Escherichia coli K88 infected in ICR mouse model of peritoneal sepsis assessed as bacterial load reduction in lung at 20 mg/kg, ip measured after 10 hrs; format: functional, organism-based
Escherichia coli [2] = assay: Induction of outer membrane permeability in Escherichia coli K88 assessed as NPN leakage; format: functional, organism-based; conditions: dose 1-32 µM
Escherichia coli [3] = assay: Antibacterial activity against Escherichia coli 1515 incubated for 12 to 18 hrs by microbroth dilution method; format: functional; conditions: time 12-18 hrs
Bacteria [4] = assay: Antibacterial activity against bacterial cells at 100 degreeC at 1 to 64 uM incubated for 60 mins; format: functional, organism-based; conditions: dose 1-64 µM
Staphylococcus aureus = assay: Antibacterial activity against Staphylococcus aureus 25923 incubated for 12 to 18 hrs by microbroth dilution method; format: functional; conditions: time 12-18 hrs
Escherichia coli [5] = assay: Antibacterial activity against Escherichia coli K88 infected in ICR mouse model of peritoneal sepsis assessed as bacterial load reduction in kidney at 20 mg/kg, ip measured after 10 hrs; format: functional, organism-based
Bacteria [6] = assay: Antibacterial activity against bacterial cells at 1 to 128 uM in presence of NaCl; format: functional, organism-based; conditions: dose 1-128 µM
Escherichia coli [7] = assay: Antibacterial activity against Escherichia coli K88 infected in ICR mouse model of peritoneal sepsis assessed as reduction in edema in renal tubular epithelial cells at 20 mg/kg, ip measured after 10 hrs by H and E staining based analysis; format: functional, organism-based
Escherichia coli [8] = assay: Antibacterial activity against Escherichia coli 078 incubated for 12 to 18 hrs by microbroth dilution method; format: functional; conditions: time 12-18 hrs
[9] = Toxicity in ICR mouse assessed as hunchback posture at 40 mg/kg, ip measured for 30 to 4 hrs; format: organism-based; conditions: in vivo, time 30-4 hrs
[10] = Cytotoxicity against mouse RAW264.7 cells assessed as cell viability at 128 uM incubated for 4 hrs by MTT assay relative to control; format: toxicity, cell-based; conditions: read-out: Activity
Escherichia coli [11] = assay: Antibacterial activity against Escherichia coli K88 infected in ICR mouse model of peritoneal sepsis assessed as reduction in blood IL-1beta level at 20 mg/kg, ip measured after 10 hrs; format: functional, organism-based
Bacteria [12] = assay: Antibacterial activity against bacterial cells at pH 12; format: functional
Escherichia coli [13] = assay: Antibacterial activity against Escherichia coli K88 incubated for 12 to 18 hrs by microbroth dilution method; format: functional; conditions: time 12-18 hrs
[14] = Toxicity in ICR mouse assessed as change in spleen index at 10 to 40 mg/kg, ip treated for 3 days consecutively; format: organism-based; conditions: in vivo, 72 h, dose 10-40 mg/kg, time 3 day
[15] = Cytotoxicity against porcine IPEC-J2 cells assessed as cell viability at 128 uM incubated for 4 hrs by MTT assay relative to control; format: toxicity, cell-based, Sus scrofa; conditions: pig, read-out: Activity
Escherichia coli [16] = assay: Antibacterial activity against Escherichia coli K88 infected in ICR mouse model of peritoneal sepsis assessed as reduction in necrosis in renal tubular epithelial cells at 20 mg/kg, ip measured after 10 hrs by H and E staining based analysis; format: functional, organism-based
[17] = Selectivity ratio of MIC for antibacterial activity against Staphylococcus aureus 29213 to MIC for antibacterial activity against Escherichia coli K94; format: functional
[18] = Toxicity in ICR mouse assessed as change in serum ALT level at 10 to 40 mg/kg, ip treated for 3 days consecutively; format: organism-based; conditions: in vivo, 72 h, dose 10-40 mg/kg, time 3 day
[19] = Hemolytic activity against human red blood cells at 2 to 128 uM relative to control; format: toxicity, cell-based, Erythrocyte; conditions: dose 2-128 µM, read-out: Activity
[20] = test system: Staphylococcus epidermidis; assay: Antibacterial activity against Staphylococcus epidermidis 12228 incubated for 12 to 18 hrs by microbroth dilution method; format: functional; conditions: time 12-18 hrs
[21] = Selectivity ratio of MIC for antibacterial activity against Lactobacillus plantarum 8014 to MIC for antibacterial activity against Escherichia coli K90; format: functional
Escherichia coli [22] = assay: Antibacterial activity against Escherichia coli K88 infected in ICR mouse model of peritoneal sepsis assessed as reduction in blood HMGB1 level at 20 mg/kg, ip measured after 10 hrs; format: functional, organism-based
Escherichia coli [23] = assay: Antibacterial activity against Escherichia coli K88 infected in ICR mouse model of peritoneal sepsis assessed as reduction in vacuolar degeneration of hepatocytes at 20 mg/kg, ip measured after 10 hrs by H and E staining based analysis; format: functional, organism-based
Bacteria [24] = assay: Antibacterial activity against bacterial cells at pH 4 to 10; format: functional
[25] = Selectivity ratio of MIC for antibacterial activity against Pseudomonas aeruginosa 27853 to MIC for antibacterial activity against Escherichia coli K96; format: functional
[26] = Toxicity in ICR mouse assessed as change in liver index at 10 to 40 mg/kg, ip treated for 3 days consecutively; format: organism-based; conditions: in vivo, 72 h, dose 10-40 mg/kg, time 3 day
[27] = Selectivity ratio of MIC for antibacterial activity against Lactobacillus rhamnosus 7469 to MIC for antibacterial activity against Escherichia coli K89; format: functional
[28] = Selectivity ratio of MIC for antibacterial activity against Escherichia coli 1515 to MIC for antibacterial activity against Escherichia coli K100; format: functional
Escherichia coli [29] = assay: Antibacterial activity against Escherichia coli K88 infected in ICR mouse model of peritoneal sepsis assessed as reduction in vascular bruising in liver at 20 mg/kg, ip measured after 10 hrs by H and E staining based analysis; format: functional, organism-based
Escherichia coli [30] = assay: Antibacterial activity against Escherichia coli K99 incubated for 12 to 18 hrs by microbroth dilution method; format: functional; conditions: time 12-18 hrs
[31] = Selectivity ratio of MIC for antibacterial activity against Lactococcus lactis NZ9000 to MIC for antibacterial activity against Escherichia coli K88; format: functional
Escherichia coli [32] = assay: Induction of inner membrane permeability in Escherichia coli K88 assessed as increase in ONP level at 2 uM; format: functional, organism-based
Bacteria [33] = assay: Antibacterial activity against bacterial cells at pH 2; format: functional
[34] = Selectivity ratio of MIC for antibacterial activity against Salmonella typhimurium 7731 to MIC for antibacterial activity against Escherichia coli K98; format: functional
[35] = Effect on secondary structure of compound in PBS assessed as formation of alpha-helical conformation at 100 uM by CD analysis; format: physicochemical; conditions: buffer
Pseudomonas aeruginosa = assay: Antibacterial activity against Pseudomonas aeruginosa PAO1 incubated for 12 to 18 hrs by microbroth dilution method; format: functional; conditions: time 12-18 hrs
[36] = test system: Lacticaseibacillus rhamnosus; assay: Antibacterial activity against Lactobacillus rhamnosus 7469 incubated for 12 to 18 hrs by microbroth dilution method; format: functional; conditions: time 12-18 hrs
[37] = Hydrophobicity of compound; format: physicochemical
[38] = Selectivity ratio of MIC for antibacterial activity against Pseudomonas aeruginosa PAO1 to MIC for antibacterial activity against Escherichia coli K97; format: functional
[39] = Relative hydrophobic moment of compound; format: physicochemical
Escherichia coli [40] = assay: Antibacterial activity against Escherichia coli K88 infected in ICR mouse model of peritoneal sepsis assessed as reduction in granulocyte infiltration in spleen at 20 mg/kg, ip measured after 10 hrs by H and E staining based analysis; format: functional, organism-based
Lactococcus lactis = assay: Antibacterial activity against Lactococcus lactis NZ9000 incubated for 12 to 18 hrs by microbroth dilution method; format: functional; conditions: time 12-18 hrs
[41] = Effect on secondary structure of compound in 50 percent TFE assessed as formation of alpha-helical conformation at 100 uM by CD analysis; format: physicochemical
[42] = Selectivity ratio of MIC for antibacterial activity against Staphylococcus aureus 25923 to MIC for antibacterial activity against Escherichia coli K93; format: functional

SMILES: CC[C@@H](C)[C@H](NC(=O)CNC(=O)[C@@H]1CCCN1C(=O)[C@H](CCCCN)NC(=O)[C@H](Cc1c[nH]c2ccccc12)NC(=O)[C@@H](NC(=O)[C@H](CCCCN)NC(=O)[C@H](CCCCN)NC(=O)[C@H](Cc1c[nH]c2ccccc12)NC(=O)[C@H](Cc1ccc(O)cc1)NC(=O)[C@H](CCCCN)NC(=O)[C@@H](NC(=O)[C@H](CC(C)C)NC(=O)[C@H](CC(N)=O)NC(=O)CNC(=O)[C@@H](N)CO)[C@@H](C)O)[C@@H](C)CC)C(=O)N[C@@H](CCCCN)C(=O)N[C@@H](CCCCN)C(=O)N[C@@H](Cc1c[nH]c2ccccc12)C(=O)N[C@H](C(=O)N[C@@H](CCCCN)C(=O)O)[C@H](C)CC
- Activity (Escherichia coli [1]): Active; Activity Comparable To Colistin Treatment
- Activity (Escherichia coli [2]): Dose-dependent-effect
- MIC (Escherichia coli [3]): 4 µM (≈ 10.4 µg/mL)
- Activity (Bacteria [4]): Active
- MIC (Staphylococcus aureus): 128 µM (≈ 333 µg/mL)
- Activity (Escherichia coli [5]): Active; Activity Comparable To Colistin Treatment
- Activity (Bacteria [6]): inactive
- Activity (Escherichia coli [7]): Active
- MIC (Escherichia coli [8]): 8 µM (≈ 20.8 µg/mL)
- Activity [9]: Toxic
- viability at 4 h, 128 µM [10]: > 80%
- Activity (Escherichia coli [11]): Active
- MIC (Bacteria [12]): 4 µM (≈ 10.4 µg/mL)
- MIC (Escherichia coli [13]): 2 µM (≈ 5.21 µg/mL)
- Activity [14]: Non-toxic
- viability at 4 h, 128 µM [15]: > 80%
- Activity (Escherichia coli [16]): Active
- Ratio [17]: >2
- Activity [18]: Non-toxic
- hemolysis at up to 128 µM [19]: < 5%
- MIC [20]: 128 µM (≈ 333 µg/mL)
- Ratio [21]: >2
- Activity (Escherichia coli [22]): Active
- Activity (Escherichia coli [23]): Active
- MIC (Bacteria [24]): 2 µM (≈ 5.21 µg/mL)
- Ratio [25]: >2
- Activity [26]: Non-toxic
- Ratio [27]: >2
- Ratio [28]: >2
- Activity (Escherichia coli [29]): Active
- MIC (Escherichia coli [30]): 4 µM (≈ 10.4 µg/mL)
- Ratio [31]: >2
- Activity (Escherichia coli [32]): Active
- MIC (Bacteria [33]): 4 µM (≈ 10.4 µg/mL)
- Ratio [34]: >2
- Activity [35]: Active
- MIC (Pseudomonas aeruginosa): 4 µM (≈ 10.4 µg/mL)
- MIC [36]: 128 µM (≈ 333 µg/mL)
- Activity [37]: 0.391
- Ratio [38]: >2
- Activity [39]: 0.583
- Activity (Escherichia coli [40]): Active
- MIC (Lactococcus lactis): 128 µM (≈ 333 µg/mL)
- Activity [41]: Active
- Ratio [42]: >2
